Measured values as given in publication PMC7796460, “Relation of Metal-Binding Property and Selective Toxicity of 8-Hydroxyquinoline Derived Mannich Bases Targeting Multidrug Resistant Cancer Cells” (Cancers, 2021).

Tests used:
[1] = Reduction of in situ formed copper(II) complexes by GSH, followed spectrophotometrically; assay type: physicochemical; details: 1:1 metal to ligand, 5 eq GSH (Figure 5B)
Source text: Disruption of cellular redox homeostasis can be responsible for the toxicity of an anticancer agent. […] In addition to their redox potentials, redox cycling of the complexed metal ions is also influenced by the kinetics of the reduction and re-oxidation reactions. Reduction of iron(III) and copper(II) complexes by the physiologically relevant reducing agents glutathione (GSH) and ascorbate was followed spectrophotometrically. Although GSH is a stronger reducing agent than ascorbate, ascorbate reacted considerably faster with the iron(III) complexes (Figure 5A), while reduction by GSH seemed to be kinetically hindered (not shown). […]
Figure 5 Reduction of the in situ formed iron(III) and copper(II) complexes from equimolar metal-to-ligand ratios with antioxidants was followed spectrophotometrically by the decrease in the respective absorbance maxima. (A) Time-dependent decrease of the absorbance values in equimolar 1:1 metal to ligand mixtures of FeCl3 with Q-1 at 356 nm (black), Q-2 at 348 nm (blue), Q-3 at 334 nm (green) and Q-4 at 328 nm upon addition of 2.5 equivalents of ascorbate. (B) Time-dependent decrease of the absorbance values in equimolar 1:1 metal to ligand mixtures of CuCl2 with Q-1 at 370 nm (black), Q-2 at 372 nm (blue), Q-3 at 368 nm (green) and Q-4 at 430 nm upon addition of 5 eq GSH. […]

[2] = set-up: method as in PMID 30460942; details: copper(II) complex of the ligand; cited from earlier work

Which “Time until half of the initial copper(II) complex is reduced by GSH” value [1] does the source give for `Oc1c(CN2CCOCC2)ccc2cccnc12` [Compound Q-2, 7-(morpho-lino-methyl)quinolin-8-ol] here?
Its value is “within the first minute”.

For `Oc1c(CNCc2ccccc2F)cc(Cl)c2cccnc12` [Compound Q-4, 5-chloro-7-((2-fluorobenzylamino)methyl)quinolin-8-ol], which “pKa CuLH (logβCuLH − logβCuL)” value [2] is on record?
The value was 5.91.

And the “Time until half of the initial copper(II) complex is reduced by GSH” value [1]?
The value was “not yet fully reached after two hours”.
